Values of other authors, collected in EP1854876A2, “Genetically engineered glutaminase and its use in antiviral and anticancer therapy” (ME MEDICAL ENZYMES AG, priority 1992, dated 1994).

Tests used:
[1] = tested on: E. coli asparaginase, ineffective form; conditions: substrate not given
E. coli glutaminase B = E. coli glutaminase B (Escherichia coli, UniProt P0A6W0); conditions: described as high; substrate not given
E. coli glutaminase A = E. coli glutaminase A (Escherichia coli, UniProt P77454); conditions: described as high; substrate not given
[2] = tested on: known mammalian glutaminase enzymes; conditions: described as high; substrate not given
[3] = target: Pseudomonas 7A glutaminase-asparaginase (Pseudomonas sp., UniProt P10182); conditions: described as low
Pseudomonas 7A glutaminase-asparaginase, sequence (P10182 whole entry): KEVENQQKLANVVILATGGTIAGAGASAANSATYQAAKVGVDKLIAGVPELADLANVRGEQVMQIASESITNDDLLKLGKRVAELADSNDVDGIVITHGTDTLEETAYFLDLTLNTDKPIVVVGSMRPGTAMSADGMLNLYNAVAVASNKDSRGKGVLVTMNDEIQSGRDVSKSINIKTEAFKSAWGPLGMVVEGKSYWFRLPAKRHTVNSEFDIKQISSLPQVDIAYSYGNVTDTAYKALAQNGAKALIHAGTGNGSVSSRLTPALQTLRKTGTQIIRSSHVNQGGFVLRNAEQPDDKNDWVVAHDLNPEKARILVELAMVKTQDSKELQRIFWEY

E. coli glutaminase A, sequence (P77454 whole entry): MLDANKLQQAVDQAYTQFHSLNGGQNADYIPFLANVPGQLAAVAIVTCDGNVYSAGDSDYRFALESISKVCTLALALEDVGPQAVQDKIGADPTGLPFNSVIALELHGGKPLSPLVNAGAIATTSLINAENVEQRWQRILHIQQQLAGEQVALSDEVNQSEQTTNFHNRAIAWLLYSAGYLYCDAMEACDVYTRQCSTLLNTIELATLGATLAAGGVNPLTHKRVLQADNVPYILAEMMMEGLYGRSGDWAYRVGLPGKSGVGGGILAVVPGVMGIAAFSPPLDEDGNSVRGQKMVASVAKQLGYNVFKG
E. coli glutaminase B, sequence (P0A6W0 whole entry): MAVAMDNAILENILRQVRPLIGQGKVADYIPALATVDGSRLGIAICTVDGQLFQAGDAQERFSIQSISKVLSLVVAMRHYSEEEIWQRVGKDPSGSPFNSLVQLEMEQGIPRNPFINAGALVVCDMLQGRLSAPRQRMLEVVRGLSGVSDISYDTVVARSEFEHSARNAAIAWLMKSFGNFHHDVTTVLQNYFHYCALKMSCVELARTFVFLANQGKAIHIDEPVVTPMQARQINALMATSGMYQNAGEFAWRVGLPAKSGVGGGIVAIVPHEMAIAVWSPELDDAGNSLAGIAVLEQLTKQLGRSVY

Structure (SMILES)	Km [1] [µM]	KM (E. coli glutaminase B)	KM (E. coli glutaminase A)	KM [2]	KM for glutamine [3]
NC(=O)C[C@H](N)C(=O)O [asparagine]	> 1000	–	–	–	–
NC(=O)CC[C@H](N)C(=O)O [glutamine]	–	millimolar range	millimolar range	millimolar range	micromolar range
